Key:
[1] = system: HμRELhumanPool 96-well hepatic co-culture; test: Hμrel Low Clearance Assay; assay type: in vitro ADME, human; parameters: % of Control (intrinsic clearance relative to the control compound): tested at 1 µM; conditions: for Half-Life: human hepatic co-culture, 1 μM substrate, 0-72 hr incubation; for % of Control (intrinsic clearance relative to the control compound): observed CLint divided by average CLint of undeuterated control compound
Protocol: (§1) The Hμrel Low Clearance Assay was performed to determine the stability of deuterated compounds described herein and calculate changes in clearance relative to the control compound (undeuterated compound) that has the following structure:
(§2) HμRELhumanPool™ 96-well hepatic co-culture plates were media changed and cells were allowed to acclimatize at 37° C. for 20 hr. HμREL® incubation media (serum free) and test compound diluted from a 1000×DMSO stock (final substrate concentration 1 μM; final DMSO concentration 0.1%) were added to the HμREL© 96-well co-culture system at a final cell number of 30,000 cells per well to initiate the reaction. The final incubation volume was 80 μL per time point and two control compounds were included for reference (ketoprofen and prednisolone). All clearance assessments were performed in singlicate with the exception of the undeuterated control compound, which was tested in duplicate on two separate days for a total of 4 replicates. Each compound was incubated for 0, 2, 6, 24, 48 and 72 hr. The reactions were terminated by transferring 60 μL of incubate to 180 μL acetonitrile containing internal standard at the appropriate time points. The crash plates were centrifuged at 3000 rpm at 4° C. for 20 min to precipitate residual protein. Following protein precipitation, sample supernatants were combined in cassettes of up to 4 compounds and analyzed using generic LCMS/MS conditions.
(§3) LC-MS/MS chromatograms were analyzed by peak area ratio (test article peak area/internal standard peak area) and natural log transformed, and plotted against time. The slope of the line was determined to calculate elimination rate constant. Subsequently, half-life (t1/2) and intrinsic clearance (CLint) were calculated using the following equations: […]
(§4) Average clearance of the control compound was determined by taking the geometric mean of 3 of the four replicates. The fourth replicate was excluded from the average determination as an outlier.

[2] = Hμrel Low Clearance Assay; assay type: in vitro ADME, human; parameters: % of Control (intrinsic clearance relative to the control compound): tested at 1 µM; conditions: HμRELhumanPool 96-well hepatic co-culture, human hepatic co-culture, 1 μM substrate, 0-72 hr incubation, control = geometric mean of 3 replicates
Protocol: as §1, §2, §3, §4

[3] = target: T1, Recombinant CYP3A4 Supersomes (Homo sapiens, UniProt P08684); test: Recombinant CYP3A4 Clearance Assay; assay type: in vitro ADME; conditions: for % of Control (intrinsic clearance relative to the control compound): observed CLint divided by average CLint of undeuterated control compound; for Half-Life / CLint: recombinant CYP3A4 50 pmol/mL, 1 μM substrate, NADPH; for Half-Life: 0-120 minutes; for CLint: control = geometric mean of 3 replicates
T1 construct: purchased
T1 sequence (P08684 whole entry): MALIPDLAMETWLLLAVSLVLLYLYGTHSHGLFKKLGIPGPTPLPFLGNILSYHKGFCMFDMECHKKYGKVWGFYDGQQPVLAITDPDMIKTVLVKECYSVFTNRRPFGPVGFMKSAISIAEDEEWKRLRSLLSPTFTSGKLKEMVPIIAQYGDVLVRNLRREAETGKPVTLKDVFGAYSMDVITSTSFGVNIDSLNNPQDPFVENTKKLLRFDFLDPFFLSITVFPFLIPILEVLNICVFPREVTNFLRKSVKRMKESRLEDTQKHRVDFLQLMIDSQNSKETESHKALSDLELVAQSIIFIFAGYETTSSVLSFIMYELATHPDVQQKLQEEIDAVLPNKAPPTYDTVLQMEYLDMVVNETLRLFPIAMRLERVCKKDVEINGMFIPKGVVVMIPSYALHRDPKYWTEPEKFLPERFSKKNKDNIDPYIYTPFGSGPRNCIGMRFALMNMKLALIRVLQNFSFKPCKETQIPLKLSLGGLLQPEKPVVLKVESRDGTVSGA
Protocol: The CYP3A4 Clearance Assay was performed to determine the stability of deuterated compounds described herein and calculate changes in clearance relative to the control compound (undeuterated compound) that has the following structure:
Recombinant CYP3A4 Supersomes were prepared in 100 mM potassium phosphate buffer (50 pmol/mL final recombinase) and 80 μL aliquots were delivered per well to 96-well reaction plates containing 10 μL/well stock working solution containing substrate at 10× final concentration in 0.1:9.9:90 DMSO:ACN:100 mM phosphate buffer. Final substrate concentration during incubation was 1 μM. Reaction mixtures were pre-incubated at 37° C. for 10 minutes, prior to addition of 10 μL/well of NADPH regenerating system to initiate the reaction (β-Nicotinamide adenine dinucleotide phosphate) or 100 mM phosphate as a buffer control.
Clearance assessments were performed for test compounds in singlicate except for the control compound, which was tested in triplicate. Incubations were maintained at 37° C. for 0, 5, 15, 30, 45, 60, 90, and 120 minutes (or 0 and 120 minutes for buffer control). The reactions were terminated with 3× volume of cold (4° C.) acetonitrile (ACN) containing 200 ng/mL tolbutamide and 200 ng/mL labetalol as internal standards (IS). The crash plates were centrifuged at 4000 rpm at 4° C. for 20 min to precipitate residual protein. Following protein precipitation, sample supernatants were harvested and 3× volume of HPLC grade water was added to each sample for chromatography purposes. Plates were sealed and shaken for 10 minutes prior to LC-MS/MS analysis using generic LCMS/MS conditions.
as §3
Average intrinsic clearance of the control compound was determined by taking the geometric mean of 3 replicates.

SMILES	Half-Life [1] [h]	% of Control (intrinsic clearance relative to the control compound) [1] [%]	hepatocyte CLint at 1 μM ([2]; human) [µL/min/1e6 cells]	% of Control (intrinsic clearance relative to the control compound) [3] [%]	Half-Life [3] [h]	CLint [3] [µL/min/pmol]	hepatocyte CLint at 1 μM [2] [µL/min/1e6 cells]
[2H]C1([2H])N(CC(=O)NC(C)(C)C)C([2H])([2H])C([2H])([2H])C([2H])(CNC(=O)c2cc(F)cc(Cl)c2)C1([2H])[2H] [Compound 1, N-[[1-[2-(tert-butylamino)-2-oxo-ethyl]-2,2,3,3,4,5,5,6,6-nonadeuterio-4-piperidyl]methyl]-3-chloro-5-fluoro-benzamide]	57.17	38.1	0.539	65.3	0.202	1.15	
[2H]C1([2H])CC(CNC(=O)c2cc(F)cc(Cl)c2)CC([2H])([2H])N1CC(=O)NC(C)(C)C [Compound 2, N-[[1-[2-(tert-butylamino)-2-oxo-ethyl]-2,2,6,6-tetradeuterio-4-piperidyl]methyl]-3-chloro-5-fluoro-benzamide]	25.5	85.5		68.5	0.192	1.21	1.21
[2H]C1([2H])CN(CC(=O)NC(C)(C)C)CC([2H])([2H])C1CNC(=O)c1cc(F)cc(Cl)c1 [Compound 3, N-[[1-[2-(tert-butylamino)-2-oxo-ethyl]-3,3,5,5-tetradeuterio-4-piperidyl]methyl]-3-chloro-5-fluoro-benzamide]	21	104	1.47	82.3	0.16	1.45	
[2H]C([2H])(C(=O)NC(C)(C)C)N1CCC(CNC(=O)c2cc(F)cc(Cl)c2)CC1 [Compound 6, N-[[1-[2-(tert-butylamino)-1,1-dideuterio-2-oxo-ethyl]-4-piperidyl]methyl]-3-chloro-5-fluoro-benzamide]	21.83	99.6	1.41	77.2	0.17	1.36	
[2H]C([2H])([2H])C(C)(C)NC(=O)CN1CCC(CNC(=O)c2cc(F)cc(Cl)c2)CC1 [Compound 7, 3-chloro-5-fluoro-N-[[1-[2-oxo-2-[(2,2,2-trideuterio-1,1-dimethyl-ethyl)amino]ethyl]-4-piperidyl]methyl]benzamide]	21.83	99.6	1.41	100	0.132	1.76	
[2H]C1([2H])CN(CC(=O)NC(C)(C)C([2H])([2H])[2H])CC([2H])([2H])C1CNC(=O)c1cc(F)cc(Cl)c1 [Compound 9, 3-chloro-5-fluoro-N-[[3,3,5,5-tetradeuterio-1-[2-oxo-2-[(2,2,2-trideuterio-1,1-dimethyl-ethyl)amino]ethyl]-4-piperidyl]methyl]benzamide]	26.17	83.4	1.18	76.6	0.172	1.35	
[2H]C([2H])(NC(=O)c1cc(F)cc(Cl)c1)C1CCN(CC(=O)NC(C)(C)C([2H])([2H])[2H])CC1 [Compound 10, 3-chloro-N-[dideuterio-[1-[2-oxo-2-[(2,2,2-trideuterio-1,1-dimethyl-ethyl)amino]ethyl]-4-piperidyl]methyl]-5-fluoro-benzamide]	33.83	64.3	0.91	81.1	0.162	1.43	
[2H]C([2H])([2H])C(NC(=O)CN1C([2H])([2H])C([2H])([2H])C([2H])(CNC(=O)c2cc(F)cc(Cl)c2)C([2H])([2H])C1([2H])[2H])(C([2H])([2H])[2H])C([2H])([2H])[2H] [Compound 12, 3-chloro-5-fluoro-N-[[2,2,3,3,4,5,5,6,6-nonadeuterio-1-[2-oxo-2-[[2,2,2-trideuterio-1,1-bis(trideuteriomethyl)ethyl]amino]ethyl]-4-piperidyl]methyl]benzamide]	45.5	47.8	0.676	60.3	0.218	1.06	

Second part, led by results:

Half-Life [1] [h]	% of Control (intrinsic clearance relative to the control compound) [1] [%]	hepatocyte CLint at 1 μM ([2]; human) [µL/min/1e6 cells]	% of Control (intrinsic clearance relative to the control compound) [3] [%]	Half-Life [3] [h]	CLint [3] [µL/min/pmol]	SMILES	hepatocyte CLint at 1 μM [2] [µL/min/1e6 cells]
20.5	106	1.5	98.6	0.133	1.74	[2H]C([2H])(NC(=O)c1cc(F)cc(Cl)c1)C1CCN(CC(=O)NC(C)(C)C)CC1 [Compound 4, N-[[1-[2-(tert-butylamino)-2-oxo-ethyl]-4-piperidyl]-dideuterio-methyl]-3-chloro-5-fluoro-benzamide]	
23.33	93.3	1.32	94.1	0.14	1.66	[2H]C([2H])(NC(=O)c1cc(F)cc(Cl)c1)C1CCN(CC(=O)NC(C([2H])([2H])[2H])(C([2H])([2H])[2H])C([2H])([2H])[2H])CC1 [Compound 5, 3-chloro-N-[dideuterio-[1-[2-oxo-2-[[2,2,2-trideuterio-1,1-bis(trideuteriomethyl)ethyl]amino]ethyl]-4-piperidyl]methyl]-5-fluoro-benzamide]	
24	90.5	1.28	88.4	0.148	1.56	[2H]C1([2H])CN(CC(=O)NC(C([2H])([2H])[2H])(C([2H])([2H])[2H])C([2H])([2H])[2H])CC([2H])([2H])C1CNC(=O)c1cc(F)cc(Cl)c1 [Compound 8, 3-chloro-5-fluoro-N-[[3,3,5,5-tetradeuterio-1-[2-oxo-2-[[2,2,2-trideuterio-1,1-bis(trideuteriomethyl)ethyl]amino]ethyl]-4-piperidyl]methyl]benzamide]	
34.83	62.5	0.885	105	0.125	1.85	[2H]C([2H])([2H])C(C)(NC(=O)CN1CCC(CNC(=O)c2cc(F)cc(Cl)c2)CC1)C([2H])([2H])[2H] [Compound 14, 3-chloro-5-fluoro-N-[[1-[2-oxo-2-[[2,2,2-trideuterio-1-methyl-1-(trideuteriomethyl)ethyl]amino]ethyl]-4-piperidyl]methyl]benzamide]	
